Measurements published in patent publication US4746675A, “External pharmaceutical composition” (Teijin Limited, priority 1983, dated 1988).

Key:
carrageenan edema = carrageenan edema inhibiting effect of betamethasone valerate ointments; type: in vivo, rat; settings: Table 5, betamethasone valerate ointment with penetration enhancer
Method: An ointment was prepared from 0.15 part by weight of betamethasone valerate, 9.85 parts by weight of compound (168) and 90 parts by weight of the hydrophilic ointment.
In accordance with the method of R. Passarella et al. [Argneim. Forsch 30, (I), Nr. 4, 647-651 (1980)], the carrageenan edema inhibiting effect of the above ointment was examined. Specifically, 0.1 ml of a 1% carrageenan suspension in 0.9% NaCl solution was injected into the tip of the right leg of a rat (body weight 150-175 g). The foot volume was measured immediately after administration of carrageenan and 3, 5, and 6 hours after the administration by means of a mercury displacement device. 0.5, 1 and 2 hours after the administration of carrageenan, 100 mg of the ointment was well […] into each of the sites which underwent inflammation.
Various ointments were prepared from 0.15 part by weight of betamethasone valerate, […] of the various penetration enhancers shown in Table 5, and 85 parts by weight of the hydrophilic ointment, and tested in the same way as in Example 23.

[1] = test system: eye (cornea, iris, conjunctiva); assay: primary eye irritation (Draize) in rabbits; type: in vivo, white native male rabbits; settings: 2.4% soln, average of three rabbits
Method: enhancers of this invention shown in Table 17 was applied dropwise to one eye of white native male rabbits (body weight 2.0 to 3.0 kg; 3 per group) which, it had been ascertained, were free from any trouble at the cornea, iris and conjunctiva. Nothing was applied to the other eye. Thus, irritation of the absorption aid to the mucous membrane of the eyes were examined, and scores were calculated in accordance with the Draize's eye irritation evaluating method [Association of Foods, "Drugs and Cosmetics" (1957)].
As a control, sodium laurylsulfate, a kind of surface-active agent, was evaluated in the same way, and the results are also shown in Table 17.

SMILES | Percentage inhibition vs. control (carrageenan edema; 3 hrs) [%] | Percentage inhibition vs. control (carrageenan edema; 5 hrs) [%] | Percentage inhibition vs. control (carrageenan edema; 6 hrs) [%] | Primary irritation score, Conjunctiva ([1]; 1 hour) | Primary irritation score, Cornea ([1]; 1 hour) | Primary irritation score, Iris ([1]; 1 hour) | Primary irritation score, Total ([1]; 1 hour) | Primary irritation score, Conjunctiva ([1]; 3 hours) | Primary irritation score, Cornea ([1]; 3 hours) | Primary irritation score, Iris ([1]; 3 hours) | Primary irritation score, Total ([1]; 3 hours) | Primary irritation score, Conjunctiva ([1]; 6 hours) | Primary irritation score, Cornea ([1]; 6 hours) | Primary irritation score, Iris ([1]; 6 hours) | Primary irritation score, Total ([1]; 6 hours) | Primary irritation score, Conjunctiva ([1]; 24 hours) | Primary irritation score, Cornea ([1]; 24 hours) | Primary irritation score, Iris ([1]; 24 hours) | Primary irritation score, Total ([1]; 24 hours) | Primary irritation score, Conjunctiva ([1]; 48 hours) | also measured
CCCCCCCCC1(CCCCCCCC)OCC(COC(=O)C2CCC(=O)N2)O1 (stereo not drawn) [Compound (214), 2,3-dioxo-(dioctyl)methylene-1-pyroglutamyloxypropane] | 18.2 | 35.3 | 35.5 | 2.0 | 0 | 0 | 2.0 | 2.0 | 0 | 0 | 2.0 | 2.0 | 0 | 0 | 2.0 | 0 | 0 | 0 | 0 | 0 | Primary irritation score, Cornea ([1]; 48 hours): 0; Primary irritation score, Iris ([1]; 48 hours): 0; Primary irritation score, Total ([1]; 48 hours): 0; Primary irritation score, Conjunctiva ([1]; 72 hours): 0; Primary irritation score, Cornea ([1]; 72 hours): 0; Primary irritation score, Iris ([1]; 72 hours): 0; Primary irritation score, Total ([1]; 72 hours): 0; Primary irritation score, Conjunctiva ([1]; 96 hours): 0; Primary irritation score, Cornea ([1]; 96 hours): 0; Primary irritation score, Iris ([1]; 96 hours): 0; Primary irritation score, Total ([1]; 96 hours): 0; Primary irritation score, Conjunctiva ([1]; 168 hours): 0; Primary irritation score, Cornea ([1]; 168 hours): 0; Primary irritation score, Iris ([1]; 168 hours): 0; Primary irritation score, Total ([1]; 168 hours): 0
CCC=CCCCCCCCCOCC(O)COC(=O)[C@@H]1CCC(=O)N1 (stereo partly drawn) [Compound (134), 3-(9-dodecenyloxy)-2-hydroxy-1-pyroglutamyloxypropane] | 16.4 | 30.3 | 34.2 | 3.3 | 0 | 0 | 3.3 | 1.3 | 0 | 0 | 1.3 | 1.3 | 0 | 0 | 1.3 | 0 | 0 | 0 | 0 | 0 | Primary irritation score, Cornea ([1]; 48 hours): 0; Primary irritation score, Iris ([1]; 48 hours): 0; Primary irritation score, Total ([1]; 48 hours): 0; Primary irritation score, Conjunctiva ([1]; 72 hours): 0; Primary irritation score, Cornea ([1]; 72 hours): 0; Primary irritation score, Iris ([1]; 72 hours): 0; Primary irritation score, Total ([1]; 72 hours): 0; Primary irritation score, Conjunctiva ([1]; 96 hours): 0; Primary irritation score, Cornea ([1]; 96 hours): 0; Primary irritation score, Iris ([1]; 96 hours): 0; Primary irritation score, Total ([1]; 96 hours): 0; Primary irritation score, Conjunctiva ([1]; 168 hours): 0; Primary irritation score, Cornea ([1]; 168 hours): 0; Primary irritation score, Iris ([1]; 168 hours): 0; Primary irritation score, Total ([1]; 168 hours): 0
CCCCCCCCCCCC(=O)OCC(O)COC(=O)[C@@H]1CCC(=O)N1 (stereo partly drawn) [Compound (172), 3-dodecanoyloxy-2-hydroxy-1-pyroglutamyloxypropane] | 18.1 | 37.2 | 35.5 | 3.3 | 0 | 0 | 3.3 | 2.0 | 0 | 0 | 2.0 | 1.3 | 0 | 0 | 1.3 | 0 | 0 | 0 | 0 | 0 | Primary irritation score, Cornea ([1]; 48 hours): 0; Primary irritation score, Iris ([1]; 48 hours): 0; Primary irritation score, Total ([1]; 48 hours): 0; Primary irritation score, Conjunctiva ([1]; 72 hours): 0; Primary irritation score, Cornea ([1]; 72 hours): 0; Primary irritation score, Iris ([1]; 72 hours): 0; Primary irritation score, Total ([1]; 72 hours): 0; Primary irritation score, Conjunctiva ([1]; 96 hours): 0; Primary irritation score, Cornea ([1]; 96 hours): 0; Primary irritation score, Iris ([1]; 96 hours): 0; Primary irritation score, Total ([1]; 96 hours): 0; Primary irritation score, Conjunctiva ([1]; 168 hours): 0; Primary irritation score, Cornea ([1]; 168 hours): 0; Primary irritation score, Iris ([1]; 168 hours): 0; Primary irritation score, Total ([1]; 168 hours): 0
